Measurements as given in ChEMBL document CHEMBL5244267, “A brief overview on recent advances in spiro[chromane-2,4'-piperidine]-4(3H)-one-functionalized compounds in medicinal chemistry research” (Bioorg Med Chem, 2020).
In brackets after ≈: the same amount, converted by molar mass.

Assays:
Carbonic anhydrase 9 = Carbonic anhydrase 9 (Homo sapiens, UniProt Q16790); test: Binding affinity to human CA9 assessed as inhibition constant
[1] = Antioxidant activity assessed as DPPH free radical scavenging activity at 500 microg/ml; assay type: functional
[2] = target: Acetyl-CoA carboxylase 1 (Rattus norvegicus) (UniProt P11497); test: In vivo inhibition of ACC1 in Sprague-Dawley rat assessed as reduction in malonyl-CoA in liver at […] relative to control; assay type: functional
[3] = In vivo inhibition of ACC2 in Sprague-Dawley rat assessed as reduction in malonyl-CoA in quadriceps at […] relative to control; assay type: functional
[4] = target: Acetyl-CoA carboxylase 1 (Rattus norvegicus) (UniProt P11497); test: In vivo inhibition of ACC1 in Sprague-Dawley rat assessed as reduction in malonyl-CoA in liver; assay type: functional
[5] = In vivo inhibition of ACC2 in Sprague-Dawley rat assessed as reduction in malonyl-CoA in quadriceps; assay type: functional
[6] = Antioxidant activity assessed as DPPH radical scavenging activity at 100 uM/ml; assay type: functional
Erythrocyte = test: Anti-inflammatory activity in human red blood cells assessed as protection of cell membrane at 100 ug/mL relative to control; assay type: functional; details: dose 100 µg/ml
MCF7 = test: Anticancer activity against human MCF7 cells assessed as inhibition of cell proliferation measured after 48 hrs by MTT assay; assay type: functional, cell-based; details: MCF7, 48 h
A2780 = test: Anticancer activity against human A2780 cells assessed as inhibition of cell proliferation measured after 48 hrs by MTT assay; assay type: functional, cell-based; details: A2780, 48 h
HT-29 = test: Anticancer activity against human HT-29 cells assessed as inhibition of cell proliferation measured after 48 hrs by MTT assay; assay type: functional, cell-based; details: HT-29, 48 h
Plasmodium falciparum = test: Antiplasmodial activity against chloroquine-resistant Plasmodium falciparum Dd2 in HepG2 cells; assay type: functional, organism-based
HepG2 = test: Antiproliferative activity against human HepG2 cells assessed as reduction in cell viability after 24 hrs by MTT assay; assay type: functional, cell-based; details: HepG2, 24 h
[7] = Lipophilicity, logP of the compound; assay type: physicochemical; details: octanol/water
[8] = Aqueous solubility of the compound at pH 6.2; assay type: physicochemical; details: buffer
[9] = Aqueous solubility of the compound at pH 5.0; assay type: physicochemical; details: buffer
[10] = AUC (0 to infinity) in CD1 mouse at 10 mg/kg, iv administered as single dose by UPLC analysis; assay type: ADME, organism-based; parameters: dose 10 mg/kg, route iv; details: in vivo
[11] = Half life in CD1 mouse at 3 mg/kg, iv; assay type: ADME, organism-based; details: in vivo
[12] = Clearance in CD-1 mouse at 10 mg/kg iv measured by UPLC-MS/MS method; assay type: ADME, organism-based; details: in vivo
[13] = Volume of distribution in CD-1 mouse at 10 mg/kg iv measured by UPLC-MS/MS method; assay type: ADME, organism-based; details: in vivo
[14] = Cmax in CD1 mouse at 0.5 mg/kg, iv; assay type: ADME, organism-based; parameters: dose 0.5 mg/kg, route iv; details: in vivo
[15] = AUC in CD1 mouse at 10 mg/kg, iv administered as single dose by UPLC analysis; assay type: ADME, organism-based; parameters: dose 10 mg/kg, route iv; details: in vivo
[16] = Antioxidant activity assessed as H2O2 radical scavenging activity; assay type: functional

Question: With `CCOc1ccc2c(c1)C(=O)CC1(CCN(c3ccc(S(N)(=O)=O)cc3[N+](=O)[O-])CC1)O2` as the molecule, how does the Ki (Carbonic anhydrase 9) read?
Answer: 2.84 µM

Question: For `NS(=O)(=O)c1ccc(N2CCC3(CC2)CC(=O)c2ccc(Br)cc2O3)c([N+](=O)[O-])c1`, which Ki (Carbonic anhydrase 9) is on record?
Answer: 1.47 µM

Question: Which IC50 [1] does the source give for `O=C1Nc2ccc(Br)cc2/C1=C/C(=O)c1cc2c(cc1O)OC1(CCN(Cc3ccccc3)CC1)CC2=O` here?
Answer: 12.7 µM

Question: Which inhibition [2] does the source give for `CC(C)(C)n1cc2c(n1)C(=O)CC1(CCN(C(=O)c3ccc4[nH]ncc4c3)CC1)O2` here?
Answer: 75%

Question: And the “inhibition (INH)” value [3]?
Answer: 78%

Question: And the ED50 [4]?
Answer: 1.6 mg/kg

Question: What about the ED50 [5] of the same molecule?
Answer: 2.6 mg/kg

Question: Which results are given for `O=C1O[C@H]([C@@H](O)CO)C(O)=C1O` [ASCORBIC ACID]?
Answer: IC50 ([6]; read-out: IC50): 8.64 µM; IC50 [1]: 8.64 µM

Question: For `CC(=O)N1CCC2(CC1)CC(=O)c1cc(C(=O)/C=C3\C(=O)Nc4ccccc43)c(O)cc1O2`, which IC50 [1] is on record?
Answer: 47.7 µM

Question: With `NS(=O)(=O)c1ccc(N2CCC3(CC2)CC(=O)c2cc(Br)ccc2O3)c([N+](=O)[O-])c1` as the molecule, how does the Ki (Carbonic anhydrase 9) read?
Answer: 0.199 µM

Question: Which IC50 ([6]; read-out: IC50) does the source give for `CN1CCC2(CC1)CC(=O)c1c(ccc3c1CCC(C)(C)O3)O2` here?
Answer: 6.59 µM

Question: And the Activity (Erythrocyte)?
Answer: 64.72%

Question: For `COCCOc1ccc2c(c1)OC1(CCN(c3ccc(S(N)(=O)=O)cc3[N+](=O)[O-])CC1)CC2=O`, which Ki (Carbonic anhydrase 9) is on record?
Answer: 0.0454 µM

Question: With `CCOC(=O)N1CCC2(CC1)CC(=O)c1cc(C(=O)/C=C3\C(=O)Nc4ccc(Br)cc43)c(O)cc1O2` as the molecule, how does the IC50 [1] read?
Answer: 48.5 µM

Question: With `CC(C)(C)OCC(=O)CN1CCC2(CC1)CC(=O)c1cc(C(=O)/C=C3\C(=O)Nc4ccc(Br)cc43)c(O)cc1O2` as the molecule, how does the IC50 [1] read?
Answer: 56.3 µM

Question: Which IC50 ([6]; read-out: IC50) does the source give for `CC(=O)N1CCC2(CC1)CC(=O)c1cc3c(cc1O2)CCC(C)(C)O3` here?
Answer: 5.32 µM

Question: And the Activity (Erythrocyte)?
Answer: 23.07%

Question: For `NS(=O)(=O)c1ccc(N2CCC3(CC2)CC(=O)c2ccccc2O3)c([N+](=O)[O-])c1`, which Ki (Carbonic anhydrase 9) is on record?
Answer: 0.229 µM

Question: Which Ki (Carbonic anhydrase 9) does the source give for `NS(=O)(=O)c1ccc(N2CCC3(CC2)CC(=O)c2ccc(O)cc2O3)c([N+](=O)[O-])c1` here?
Answer: 4.41 µM

Question: Which IC50 [1] does the source give for `CCOC(=O)N1CCC2(CC1)CC(=O)c1cc(C(=O)/C=C3\C(=O)Nc4ccccc43)c(O)cc1O2` here?
Answer: 1.74 µM

Question: For `CC(C)Oc1ccc2c(c1)OC1(CCN(c3ccc(S(N)(=O)=O)cc3[N+](=O)[O-])CC1)CC2=O`, which Ki (Carbonic anhydrase 9) is on record?
Answer: 0.0346 µM

Question: For `COc1ccc2c(c1)C(=O)CC1(CCN(c3ccc(S(N)(=O)=O)cc3[N+](=O)[O-])CC1)O2`, which Ki (Carbonic anhydrase 9) is on record?
Answer: 1.56 µM

Question: With `Cc1ccc2c(c1)C(=O)CC1(CCN(c3ccc(S(N)(=O)=O)cc3[N+](=O)[O-])CC1)O2` as the molecule, how does the Ki (Carbonic anhydrase 9) read?
Answer: 3.55 µM

Question: What does the source list for `CC(=O)N1CCC2(CC1)CC(=O)c1c(ccc3c1CCC(C)(C)O3)O2`?
Answer: IC50 ([6]; read-out: IC50): 6.59 µM; Activity (Erythrocyte): 56.1%

Question: Which IC50 (MCF7) does the source give for `Cc1ccc(S(=O)(=O)N2CCC3(CC2)CC(=O)c2ccccc2O3)cc1` here?
Answer: 6.78 µM

Question: What about the IC50 (A2780) of the same molecule?
Answer: 1.79 µM

Question: And the IC50 (HT-29)?
Answer: 16 µM

Question: With `COCCOc1ccc2c(c1)C(=O)CC1(CCN(c3ccc(S(N)(=O)=O)cc3[N+](=O)[O-])CC1)O2` as the molecule, how does the Ki (Carbonic anhydrase 9) read?
Answer: 4.34 µM

Question: Which Ki (Carbonic anhydrase 9) does the source give for `CCCOc1ccc2c(c1)C(=O)CC1(CCN(c3ccc(S(N)(=O)=O)cc3[N+](=O)[O-])CC1)O2` here?
Answer: 1.24 µM

Question: Which Ki (Carbonic anhydrase 9) does the source give for `CCCOc1ccc2c(c1)OC1(CCN(c3ccc(S(N)(=O)=O)cc3[N+](=O)[O-])CC1)CC2=O` here?
Answer: 4.15 µM

Question: Which results are given for `OC(CN1CCC2(CC1)CC(O)c1ccc3ccccc3c1O2)c1ccc(F)c(F)c1` (stereo unspecified)?
Answer: EC50 (Plasmodium falciparum): 0.35 µM; EC50 (HepG2): 19 µM; logP [7]: 3.85; solubility [8]: > 42 µg/mL; solubility [9]: > 42 µg/mL

Question: For `CC(C)(C)OCC(=O)CN1CCC2(CC1)CC(=O)c1cc(C(=O)/C=C3\C(=O)Nc4ccccc43)c(O)cc1O2`, which IC50 [1] is on record?
Answer: 6.85 µM

Question: Which Ki (Carbonic anhydrase 9) does the source give for `CC(=O)Oc1ccc2c(c1)C(=O)CC1(CCN(c3ccc(S(N)(=O)=O)cc3[N+](=O)[O-])CC1)O2` here?
Answer: 4.08 µM

Question: For `NS(=O)(=O)c1ccc(N2CCC3(CC2)CC(=O)c2ccc(OCCO)cc2O3)c([N+](=O)[O-])c1`, which Ki (Carbonic anhydrase 9) is on record?
Answer: 0.0465 µM

Question: For `CCOc1ccc2c(c1)OC1(CCN(c3ccc(S(N)(=O)=O)cc3[N+](=O)[O-])CC1)CC2=O`, which Ki (Carbonic anhydrase 9) is on record?
Answer: 2.65 µM

Question: What does the source list for `O=C(/C=C/c1ccc2c(c1)C(=O)CC1(CCN(Cc3ccc(F)cc3)CC1)O2)NO`?
Answer: AUC(0-inf) ([10]; CD1, mouse): 1490 ng·h/mL; half-life [11]: 13 h; clearance ([12]; CD-1, mouse): 55.8 mL/min/kg; Vd [13]: 5.9 L/kg; Cmax [14]: 1830 nM; AUC [15]: 1240 ng·h/mL

Question: Which results are given for `Cc1c(C(=O)c2ccc(-c3ccccc3)cc2)oc2cc3c(cc12)C(=O)CC1(CCN(CC(=O)OC(C)(C)C)CC1)O3`?
Answer: IC50 [6]: 63.92 µg/mL; IC50 [16]: 44.73 µg/mL (≈ 79.1 µM)

Question: Which Ki (Carbonic anhydrase 9) does the source give for `CC(C)Oc1ccc2c(c1)C(=O)CC1(CCN(c3ccc(S(N)(=O)=O)cc3[N+](=O)[O-])CC1)O2` here?
Answer: 3.3 µM

Question: For `COc1ccc2c(c1)OC1(CCN(c3ccc(S(N)(=O)=O)cc3[N+](=O)[O-])CC1)CC2=O`, which Ki (Carbonic anhydrase 9) is on record?
Answer: 2.75 µM

Question: With `O=C(/C=C/c1ccc2c(c1)C(=O)CC1(CCN(CCc3ccccc3)CC1)O2)NO` as the molecule, how does the AUC ([10]; mouse) read?
Answer: 1042 ng·h/mL

Question: What about the half-life [11] of the same molecule?
Answer: 9.1 h

Question: And the CL ([12]; mouse, iv, 10 mg/kg)?
Answer: 79.8 mL/min/kg

Question: What about the Vd [13] of the same molecule?
Answer: 8.6 L/kg

Question: What about the Cmax [14] of the same molecule?
Answer: 2490 nM

Question: What about the AUC [15] of the same molecule?
Answer: 1600 ng·h/mL

Question: For `COc1cc(C(=O)N2CCC3(CC2)CC(=O)c2ccccc2O3)cc(OC)c1OC`, which IC50 (MCF7) is on record?
Answer: 47.1 µM

Question: And the IC50 (A2780)?
Answer: 18.8 µM

Question: And the IC50 (HT-29)?
Answer: 23.2 µM

Question: What does the source list for `O=C1CC2(CCN(C(=O)C34CC5CC(CC(C5)C3)C4)CC2)Oc2ccccc21`?
Answer: IC50 (MCF7): 23.9 µM; IC50 (A2780): 22.7 µM; IC50 (HT-29): 8.46 µM

Question: Which Ki (Carbonic anhydrase 9) does the source give for `NS(=O)(=O)c1ccc(N2CCC3(CC2)CC(=O)c2cc(OCCO)ccc2O3)c([N+](=O)[O-])c1` here?
Answer: 3.75 µM

Question: For `O=C1Nc2ccccc2/C1=C/C(=O)c1cc2c(cc1O)OC1(CCN(Cc3ccccc3)CC1)CC2=O`, which IC50 [1] is on record?
Answer: 8.12 µM

Question: With `CC(=O)N1CCC2(CC1)CC(=O)c1cc(C(=O)/C=C3\C(=O)Nc4ccc(Br)cc43)c(O)cc1O2` as the molecule, how does the IC50 [1] read?
Answer: 58.6 µM
